BindingDB's records for patent US20250034168 (Xizang Haisco Pharmaceutical, 2025)
pIC50: −log10 of the molar value.

Biological target: Poly [ADP-ribose] polymerase 1 (Homo sapiens, UniProt P09874)
Assay: PARP-1 Enzyme Activity Assay
Description: PARP-1 chemical […] detection kit was purchased from BPS Bioscience. The histone solution in the kit was diluted 5× with 1×PBS, and 25 μL of the diluted histone solution was added to a microwell plate and incubated overnight at 4° C. After the incubation, the plate was washed three times with PBST (0.05% Tween-20). 100 μL of the blocking solution was added to the microwell plate and incubated at 25° C. for 90 minutes. After the incubation, the plate was washed three times with PBST. 2.5 μL of compounds at different concentrations diluted in test buffer and 12.5 μL of substrate mixed solution (1.25 μL 10×PARP test buffer; 1.25 μL 10×PARP test mixed solution; 2.5 μL Activated DNA, 7.5 μL double-distilled water) were added to the microwell plate. […] Streptavidin-HRP was diluted 50× with a blocking solution, and 25 μL of the diluent was added to the microwell plate and incubated at 25° C. for 30 minutes. After the incubation, the plate was washed three times with PBST. ELISA ECL substrate A and substrate B were mixed at a ratio of 1:1 (v/v), 50 μL of the mixture was added to the microwell plate, and the chemiluminescence value was read.

Poly [ADP-ribose] polymerase 1, sequence (P09874 whole entry): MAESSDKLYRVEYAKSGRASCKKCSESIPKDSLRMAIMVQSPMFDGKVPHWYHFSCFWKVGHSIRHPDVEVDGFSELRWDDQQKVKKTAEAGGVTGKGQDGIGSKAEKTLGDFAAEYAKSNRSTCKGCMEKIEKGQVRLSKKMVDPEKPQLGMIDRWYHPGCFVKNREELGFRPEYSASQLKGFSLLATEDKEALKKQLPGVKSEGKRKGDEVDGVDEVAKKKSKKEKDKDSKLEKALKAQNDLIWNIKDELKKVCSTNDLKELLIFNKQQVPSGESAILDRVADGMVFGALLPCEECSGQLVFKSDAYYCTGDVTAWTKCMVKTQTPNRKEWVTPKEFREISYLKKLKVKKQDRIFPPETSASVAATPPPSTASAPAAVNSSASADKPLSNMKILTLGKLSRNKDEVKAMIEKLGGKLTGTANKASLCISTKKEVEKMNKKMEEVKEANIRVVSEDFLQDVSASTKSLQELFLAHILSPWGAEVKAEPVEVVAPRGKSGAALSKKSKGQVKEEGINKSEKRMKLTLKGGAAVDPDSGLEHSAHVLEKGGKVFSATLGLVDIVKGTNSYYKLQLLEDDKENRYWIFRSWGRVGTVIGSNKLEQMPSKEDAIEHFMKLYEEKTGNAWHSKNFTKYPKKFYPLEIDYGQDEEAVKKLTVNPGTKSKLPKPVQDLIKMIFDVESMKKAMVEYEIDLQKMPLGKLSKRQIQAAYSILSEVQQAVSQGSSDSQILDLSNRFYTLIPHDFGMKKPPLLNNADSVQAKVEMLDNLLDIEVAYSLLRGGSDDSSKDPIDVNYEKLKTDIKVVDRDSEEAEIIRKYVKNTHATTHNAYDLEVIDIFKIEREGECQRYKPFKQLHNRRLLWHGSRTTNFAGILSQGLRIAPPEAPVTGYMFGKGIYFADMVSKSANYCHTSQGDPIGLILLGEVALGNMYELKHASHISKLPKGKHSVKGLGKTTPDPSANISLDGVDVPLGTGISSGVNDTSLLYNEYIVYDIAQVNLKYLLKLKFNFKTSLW

- pIC50: 8.55
Structure (SMILES): CCc1cc2ncc(CN3CCC(Nc4ccc(C(=O)NC)nc4)C3)cc2[nH]c1=O (stereo unspecified) [US20250034168, Compound 7]
